Assay results: US20060068389A1, “Methods and compositions for inhibiting hiv replication” (priority 2002, published 2006)

What was measured:
Vpr [1] = settings: typical of multiple assays, FIG. 1
From the text: Accordingly to test if additional anti-glucocorticoids might mediate similar effects, screening assays were developed based on the above Vpr activities which include inhibition of antiviral activity, rescue of the inhibition of cell proliferation and viral transactivation studies. Mifepristone analogues were chosen by SAR analysis.

Rip-1 = experiment: Vpr mediated stimulation of Rip-1 nuclear translocation; format: cell-based, human
From the text: (§1) The Vpr gene of HIV-1 encodes a 15 KD virion associated protein which functions as a regulator of cellular processes linked to the HIV life cycle. We observed the interaction of a 41-kD cytosolic viral protein R interacting protein-1 (rip-1), associated with Vpr in vitro, and co-localizes in cells ex vivo. […] This protein co-elutes with Vpr in an immunoaffmity system and can be cross-linked with Vpr to form a 58 Kd complex. […] The Vpr mediated stimulation of Rip-1 nuclear translocation, and the viral complementation accomplished with exogenous Vpr protein was mimicked by GR II stimulating steroids. These effects were inhibited by mifepristone, a well-characterized GR II pathway inhibitor. In addition, the levels of LTR-CAT induction attained by Vpr protein were similarly obtained by GR activating steroids. Vpr protein induced CAT activity in cells transfected with a plasmid that contains CAT linked to HIV-1 LTR, pLTR-CAT, and co-localized with Dexamethasone as to the site of its induction of CAT activity from a panel of HIV-1 LTR CAT deletion mutants. In addition, Vpr stimulated the formation of the DNA binding complex which associates with GRE sequences during the glucocorticoid mediated transactivation process.

Vpr [2] = experiment: Viral complementation accomplished with exogenous Vpr protein; format: cell-based, HIV-1
From the text: as §1

SMILES	activity in the above assays (Vpr-based screening assays) (Vpr [1])	inhibition of Vpr mediated stimulation of Rip-1 nuclear translocation (Rip-1)	inhibition of viral complementation accomplished with exogenous Vpr protein (Vpr [2])
CC(=O)C1CCC2C3C=CC4=CC(=O)CCC4(C)C3CCC12C (stereo not shown) [Compound D1, Pregna4,6,-diene-3,20-dione]	some activity		
CC#C[C@]1(O)CC[C@H]2[C@@H]3CCC4=CC(=O)CCC4=C3[C@@H](c3ccc(N(C)C)cc3)C[C@@]21C [mifepristone]		inhibited	inhibited
C#C[C@]1(O)CCC2C3CCC4=C(CCC(=O)C4)C3CCC21C (stereo partly drawn) [Compound D2, 17-α-ethynyl-17-β-hydroxyestr-5(10)-En-3-one]	some activity		
